This is an account of results in PubChem BioAssay (NCI).

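Compound exposure: 48 hours, 5 concentrations, 96-well plates. The concentration for 50% growth inhibition is given as GI50. At the TGI there is no net growth.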

Experiment in all cases: NCI tumour cell line growth inhibition, 48 h
In test [1] the test system is DLD-1 colon.
Test [2] has as its system DMS 273 small cell lung.
The test system of test [3] is DMS 114 small cell lung.
Test [4] concerns RXF-631 renal.
For test [5], the system named is KM20L2 colon.
Test [6] deals with MDA-MB-435.
For test [7], the system named is PC-3 prostate.
For test [8], the system named is SN12K1 renal.
For test [9], the system named is MCF7 breast.
Test [10] has as its system MDA-N.

Regarding `O=C(O)c1[nH]c(C(=O)O)c(CC(F)(F)C(F)(F)C(F)(F)F)c1CC(F)(F)C(F)(F)C(F)(F)F`, the TGI in test [1], in test [2], in test [3], in test [4] and in test [5] was more than 100 µM in each case.
As to `CC(=O)O/C(C)=C\C(=O)O/N=C(\N)c1ccc(C)cc1`, the TGI is 50.9 µM in test [1]; more than 100 µM in [2]; 45 µM in test [3]; 61.1 µM in [4]; more than 100 µM in test [5].
Take `COC(=O)C12C3C4C1C1C2C3C41I` (centres undefined): the TGI in test [1], in test [3], in [4] and in test [5] was more than 100 µM each time.
Turning to `Cn1c(=O)c2c(nc3n2CCC(=O)N3)n(C)c1=O`, the TGI in test [1], in test [2], in test [3], in test [4] and in [5] was more than 100 µM in each case.
As to `CCCc1ccc(N=Cc2cc(OC)c(OC)c(OC)c2)cc1`, the TGI was more than 100 µM in test [1], more than 100 µM in [2], more than 60.6 µM in [3] and more than 100 µM in test [5].
In the case of `CCCCCCCCCCCC(=O)C1=C(O)C(O)CCC1=O` (centres undefined), the TGI is more than 100 µM in test [1], 21.3 µM in [2], 50.5 µM in test [3] and 24.9 µM in test [5].
On to `c1ccc2c(NCCCCCCCCNc3c4ccccc4nc4ccccc34)c3ccccc3nc2c1`, for which the TGI is 2.35 µM in test [6]; 2.4 µM in test [1]; 1.26 µM in test [2]; 2.42 µM in [3]; 1.93 µM in test [4]; 1.67 µM in test [7]. The TGI in test [5] stood at 2.55 µM.
In the case of `Cc1c2ncccc2c(C)c2c1[nH]c1ccccc12`, the TGI in test [1] was 23.2 µM; in test [2] it was 19 µM; in test [5], 22.6 µM.
As to `COc1cccc2c1C1=CC(=O)CCC1C(C)(C)O2` (centres undefined), the TGI was more than 100 µM in [1]; more than 100 µM in [2]; 61.5 µM in test [3]; more than 100 µM in test [4]; more than 100 µM in test [5].
In the case of `CN(C)CCNC(=O)c1cc([N+](=O)[O-])cc2ccc(-c3ccccc3)nc12`, the TGI was 39.5 µM in [1]; 31.7 µM in test [2]; 15.2 µM in [8]; 28.6 µM in test [3]; 31.2 µM in test [5]; more than 100 µM in [9].
As for `CCc1cccc(C)c1NC(=O)CC1Sc2ccccc2NC1=O` (centres undefined), the TGI in test [1], in test [2], in [3], in test [4] and in test [5] was more than 100 µM throughout.
As for `c1cc2c(cnc3cscc32)s1`, the TGI in test [1], in test [2], in test [3] and in test [4] was more than 100 µM throughout.
As for `Cc1ccc(C)c(NC(=O)/C(=N\NC(N)=S)C(C#N)c2ccccc2)c1` (centres undefined), the TGI in test [1], in test [2], in [3] and in [5] was more than 100 µM each time.
With `COc1cc2ccc3c4cc(OC)c(OCc5ccccc5)cc4cnc3c2cc1OC`, the TGI in [1], in test [3] and in test [5] was more than 100 µM throughout.
For the compound `Cc1c(C(=O)CC(=O)C(=O)NC2C3CC4CC(C3)CC2C4)[n+](=O)c2ccccc2n1[O-]` (centres undefined), the TGI in test [2], in test [3], in test [4] and in test [5] was more than 100 µM each time.
Take `COc1cc(C(C#N)NNC(=O)c2ccccc2O)ccc1O` (centres undefined): the TGI in test [1] and in test [5] was more than 100 µM each time.
In the case of `[Cl][Sn]([c]1ccccc1)[c]1ccccc1`, the GI50 in [1] is 3.65 µM; in [2], 10 µM; in test [3] it was 3.47 µM; in test [4], 3.86 µM; in test [5], 14.9 µM. Besides, the TGI was 13.7 µM in test [1]; 34 µM in [2]; 19.4 µM in [3]; 27 µM in [4]; 30.4 µM in [5].
Turning to `COc1ccc2c(C3(O)CCNCC3)c[nH]c2c1`, the TGI in test [1], in [2], in [4] and in test [5] was more than 100 µM throughout.
Take `O=c1oc2c3ccc4ccccc4c3n(Cc3nc4ccccc4[nH]3)c2c2ccccc12`: the TGI in test [1], in [3] and in [5] was more than 100 µM in each case.
Take `CC1(C)OC2C(=O)OC(COCc3ccccc3)C2O1` (centres undefined): the TGI in [1], in test [2], in test [4] and in test [5] was more than 100 µM throughout.
On to `CCCCCCCCCCCCC(SCCNC(=O)CCNC(=O)C(O)C(C)(C)COP(=O)(O)OP(=O)(O)OCC1OC(n2cnc3c(N)ncnc32)C(O)C1OP(=O)(O)O)C(=O)NCC(N)=O` (centres undefined), for which the TGI in [1], in [2], in [3], in [4] and in [5] was more than 100 µM in each case.
For `c1cncc(C2c3[nH]c4ccccc4c3CCN2CCN2CCCCC2)c1` (centres undefined), the TGI in test [1], in test [2], in [3], in test [4] and in test [5] was more than 100 µM each time.
Take `Cn1nnnc1[N-]Cc1ccccc1.[Au+].c1ccc([PH+](c2ccccc2)c2ccccc2)cc1`: the GI50 in [1] is 1.91 µM; in [2], 11.1 µM; in [3], 1.53 µM; in [5] it was 8.56 µM. For the same compound, the TGI in test [1] is 4.59 µM; in [2], more than 100 µM; in test [3], 4.83 µM; in test [5], 29.8 µM.
As to `CC1=C(N2CC2)C(=O)c2nc3n(c2C1=O)CCC3O` (centres undefined), the TGI is 0.0484 µM in test [6], 1.68 µM in test [2], 2.68 µM in test [3] and 5.95 µM in test [5].
`CC(O)C(NC(=O)C(CS)NC(=O)C(CO)NC(=O)C(CCCCN)NC(=O)C(Cc1c[nH]c2ccccc12)NC(=O)C(Cc1ccc(O)cc1)NC(=O)C(CS)NC(=O)C(N)Cc1ccccc1)C(N)=O` (centres undefined): the TGI in test [6] was more than 25 µM; in test [1], 59.7 µM; in test [2], 49.4 µM; in test [3] it was 87.9 µM; in test [10], more than 25 µM; in test [4] it was 43.7 µM. In addition, the TGI in [7] was more than 25 µM; in test [5] it was 55.8 µM; in test [9] it was more than 25 µM.
Regarding `Cc1ccc(-n2c(C)nc3c2C(=O)c2ccccc2C3=O)cc1`, the TGI in test [1], in test [2] and in test [5] was more than 100 µM in each case.
`Cn1cc(NC(=O)c2cc(NC(=O)CCCCCC(=O)Nc3cc(C(=O)Nc4cc(C(=O)NCCC(=N)N)n(C)c4)n(C)c3)cn2C)cc1C(=O)NCCC(=N)N`: the TGI in test [1], in test [2], in [3], in test [4] and in test [5] was more than 100 µM each time.
As for `COc1ccc([N+](=O)[O-])c2c(NCC(O)CO)ccnc12` (centres undefined), the TGI in test [6], in [10], in test [7] and in [9] was more than 100 µM throughout.
For `Cc1ccc(S(=O)(=O)ON/N=C2/C3OC3[C@@H]3CCCC[C@H]23)cc1` (some centres undefined), the TGI in test [1], in test [2] and in test [5] was more than 100 µM each time.
In the case of `c1c[nH]c(Cc2ncc(Cc3cnc[nH]3)[nH]2)n1`, the TGI in test [1] is more than 100 µM; in test [2], 67.8 µM; in test [3], 58.6 µM; in test [5], more than 100 µM.
Turning to `CN(C)CCNC(=O)c1cccc(CO)c1[N+](=O)[O-]`, the TGI in [6], in test [10], in [7] and in [9] was more than 100 µM each time.
Take `Nc1ccc2c(c1)[O][Sn]([c]1ccccc1)([c]1ccccc1)[O]C2=O`: the GI50 was 6.78 µM in test [6]; 4.24 µM in test [1]; 16.6 µM in test [2]; 6.68 µM in test [3]; 2.95 µM in test [10]; 15.9 µM in test [4]. In addition, the GI50 in [7] is 12.4 µM; in test [5], 18 µM; in test [9], 3.95 µM. The TGI in test [6] was found to be 17.3 µM; in test [1], 15.4 µM; in [2], 31.1 µM; in test [3], 18.7 µM; in test [10], 9.26 µM; in test [4], 29.9 µM. Further, the TGI in [7] was 24.9 µM; in test [5], 31.9 µM; in test [9], 8.52 µM.
As to `O=C1c2cccc3cc([N+](=O)[O-])cc(c23)C(=O)N1CCCN1CCN(CCCN2C(=O)c3cccc4cc([N+](=O)[O-])cc(c34)C2=O)CC1`, the TGI in [1] was more than 100 µM; in [4], 3.21 µM; in [5], more than 100 µM.
As for `CC(C)(C)N=CN1CCC(C(c2ccccc2)c2ccccc2)CC1`, the TGI in test [1] is more than 100 µM; in [2] it was more than 100 µM; in test [3], more than 100 µM; in test [5], 32.2 µM.
In the case of `COc1ccc(/C=[N+](\[O-])[C@H](COCc2ccccc2)c2ccccc2)cc1`, the TGI in test [1], in test [2], in test [3], in [4] and in [5] was more than 100 µM each time.
Regarding `COC(=O)/C(=N/NC(C)(C)C)C(C(=O)C=C(C)C)C(=O)C(=O)Nc1ccc(Cl)cc1C` (centres undefined), the TGI in test [3] and in test [5] was more than 100 µM each time.
`CCOC(=O)c1c2ccc(/C=C/C(=O)OC)ccc-2c(C(=O)OCC)c1N`: the TGI in test [1], in test [2], in [3] and in test [5] was more than 100 µM each time.
With `CCCN(CCC)c1c([N+](=O)[O-])cc(S(N)(=O)=O)cc1[N+](=O)[O-]`, the TGI in test [1] amounted to 34.9 µM; in test [2], 33.8 µM; in [3], 40.3 µM; in [4], 35.5 µM; in [5], 37.4 µM.
In the case of `O=C1C=C(c2cc(Br)c(O)c(Br)c2)/C(=C/c2cc(Br)c(O)c(Br)c2)O1`, the GI50 in test [6] was 33.6 µM; in [10] it was 33 µM; in test [7] it was 25 µM; in [9] it was 37 µM. Besides, the TGI in test [6], in test [10], in test [7] and in test [9] was more than 75 µM throughout.
As to `O=S(=O)(O)c1ccc2cc(N=Nc3cc(S(=O)(=O)O)c4cccnc4c3O)ccc2c1`, the TGI in test [6], in test [10], in test [7] and in test [9] was more than 100 µM throughout.
Consider `CCOC(=O)C(=O)Nc1c(C)cccc1CC`, for which the TGI in test [1], in test [3], in test [4] and in test [5] was more than 100 µM each time.
Consider `CC(C)(C)C([O-])=C1C(=O)c2ccccc2C1=O.CC(C)(C)C([O-])=C1C(=O)c2ccccc2C1=O.CC[O-].CC[O-].[Ti+4]`, for which the GI50 in test [1] was 46.9 µM; in test [2] it was 31.2 µM; in [5], 29.2 µM. Further, the TGI in test [1], in test [2] and in [5] was more than 100 µM in each case.
Take `COC(=O)c1ccc(OCc2ccc3oc(=O)c(-c4ccccc4)nc3c2)cc1`: the TGI is 38.4 µM in test [1], more than 100 µM in test [2] and more than 100 µM in test [3].
On to `C=CCN(N=O)C(=O)N(CCC)CCCC(NC(C)=O)C(=O)NCc1ccccc1` (centres undefined), for which the TGI in test [2], in test [3], in test [4] and in [5] was more than 100 µM each time.
Regarding `CCOC(=O)/C=C(/CN1C(=O)c2ccccc2C1=O)c1ccccc1`, the TGI in test [1], in test [2], in test [3] and in [5] was more than 100 µM in each case.
